Measured values from PubChem BioAssay AID977614 (Broad Institute, 2014).
Calls of active or inactive are those of the source.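 Rule for the calls: active = parasite count per well reduced by over 3 SD from the mean, with host cell number above 80% of untreated; inactive = the rest.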

The molecules below were run on L. donovani amastigotes in THP-1 macrophages, DAPI imaging, 72 h (assay: L. donovani intracellular amastigote growth inhibitors, imaging, THP-1 host macrophages, single concentration (AID 977614);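 note: signal is the parasite per host cell ratio from DAPI stained kinetoplasts and nuclei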).

SMILES	AC50
CC(=O)N1[C@H](CO)[C@H](c2ccccc2)[C@@H]1CNC(=O)CN1CCOCC1	> 10 µM (inactive)
C[C@@H]1CN([C@@H](C)CO)C(=O)CCCn2nncc2CO[C@@H]1CN(C)C(=O)Oc1cccc2ccccc12	> 10 µM (inactive)
COCCN(C[C@H]1[C@H](c2ccccc2)[C@@H](CO)N1C(=O)C1CC1)C(C)=O	> 10 µM (inactive)
Cc1noc(C)c1NC(=O)N(C)C[C@H]1OCc2cn(nn2)CCCC(=O)N([C@@H](C)CO)C[C@@H]1C	> 10 µM (inactive)
C/C=C/c1ccc([C@@H]2[C@@H](CO)N(C(C)=O)[C@@H]2CNC(=O)c2ccccc2)cc1	> 10 µM (inactive)
CC(=O)N(Cc1cccc(F)c1)C[C@@H]1[C@@H](c2ccccc2)[C@@H](CO)N1C(C)=O	> 10 µM (inactive)
CCC(=O)N1C[C@@H]2[C@H](c3ccccc31)[C@@H](CO)N2C(=O)CC1CC1	> 10 µM (inactive)
C[C@H](CO)N1C[C@H](C)[C@H](CN(C)C(=O)Nc2ccc(-c3cccs3)cc2)OCc2cnnn2CCCC1=O	> 10 µM (inactive)
C[C@@H]1CN([C@@H](C)CO)C(=O)CCCn2nncc2CO[C@H]1CN(C)C(=O)Nc1cccc(Oc2ccccn2)c1	> 10 µM (inactive)
Cc1noc(C)c1S(=O)(=O)N(C)C[C@H]1OCc2cnnn2CCCC(=O)N([C@H](C)CO)C[C@H]1C	> 10 µM (inactive)
CCNC[C@@H]1[C@H](c2ccccc2)[C@@H](CO)N1C(=O)Cc1ccccn1	> 10 µM (inactive)
CCN(C[C@H]1N[C@H](CO)[C@H]1c1ccccc1)C(=O)c1ccncc1	> 10 µM (inactive)
O=C(NC[C@H]1N[C@H](CO)[C@@H]1c1ccc(-c2cncnc2)cc1)C1CCCCC1	> 10 µM (inactive)
COCC(=O)NC[C@@H]1[C@@H](c2ccccc2)[C@H](CO)N1C(=O)c1ccccc1	> 10 µM (inactive)
O=C(C1CCC1)N1C[C@H]2[C@@H](c3ccccc31)[C@@H](CO)N2C(=O)Nc1cccc(F)c1	> 10 µM (inactive)
CCC(=O)N1[C@@H](CO)[C@@H](c2ccccc2)[C@@H]1CN(CC)C(=O)c1cccc(F)c1	> 10 µM (inactive)
Cc1noc(C)c1NC(=O)N(C)C[C@H]1OCc2cnnn2CCCC(=O)N([C@H](C)CO)C[C@H]1C	> 10 µM (inactive)
O=C(Nc1cccc(F)c1)N1C[C@@H]2[C@H](c3ccccc31)[C@@H](CO)N2C(=O)Cc1ccccn1	> 10 µM (inactive)
CCCC(=O)N1C[C@H]2[C@@H](c3ccccc31)[C@@H](CO)N2C(=O)Nc1ccc(F)cc1	> 10 µM (inactive)
C[C@H]1CN([C@@H](C)CO)C(=O)CCCn2nncc2CO[C@H]1CN(C)S(=O)(=O)c1ccccc1C#N	> 10 µM (inactive)
C[C@H](CO)N1C[C@H](C)[C@H](CN(C)C(=O)Nc2cccc3ccccc23)OCc2cn(nn2)CCCC1=O	> 10 µM (inactive)
CC(C)N(C[C@@H]1[C@@H](c2ccccc2)[C@@H](CO)N1S(C)(=O)=O)C(=O)CN(C)C	> 10 µM (inactive)
COc1ccc(C(=O)N2C[C@@H]3[C@H](c4ccccc42)[C@H](CO)N3C(=O)NC(C)C)cc1	> 10 µM (inactive)
C[C@H]1CN([C@@H](C)CO)C(=O)CCCn2cc(nn2)CO[C@@H]1CN(C)C(=O)Nc1cccc2ccccc12	> 10 µM (inactive)
C[C@@H]1CN([C@H](C)CO)C(=O)CCCn2nncc2CO[C@H]1CN(C)C(=O)c1cc(-c2ccccc2)on1	> 10 µM (inactive)
CN(C[C@@H]1N[C@H](CO)[C@@H]1c1ccc(-c2cccc(F)c2)cc1)C(=O)CC1CC1	> 10 µM (inactive)
C[C@H](CO)N1C[C@H](C)[C@H](CN(C)C(=O)Nc2ccc3c(c2)OCO3)OCc2cn(nn2)CCCC1=O	> 10 µM (inactive)
C/C=C/c1ccc([C@H]2[C@@H](CO)N(C(C)=O)[C@@H]2CNC(=O)c2ccccc2)cc1	> 10 µM (inactive)

SMILES	AC50
CN1[C@@H]2CNc3ccccc3[C@@H]2[C@@H]1CO	> 10 µM (inactive)
CN1C[C@H]2[C@@H](c3ccccc31)[C@H](CO)N2C(=O)C1CCOCC1	> 10 µM (inactive)
C[C@H](CO)N1C[C@H](C)[C@H](CN(C)Cc2ccc3cccnc3c2)OCc2cnnn2CCCC1=O	> 10 µM (inactive)
COc1ccc(CN2[C@@H](CO)[C@@H]3c4ccccc4N(C(=O)NC(C)C)C[C@@H]32)cc1	> 10 µM (inactive)
O=C(Nc1cccc(Cl)c1)N1C[C@H]2[C@@H](c3ccccc31)[C@H](CO)N2Cc1cccnc1	> 10 µM (inactive)
CCN(C[C@@H]1[C@@H](c2ccccc2)[C@@H](CO)N1CC1CC1)C(=O)c1ccccn1	> 10 µM (inactive)
C[C@@H]1CN([C@@H](C)CO)C(=O)CCCn2nncc2CO[C@@H]1CN(C)C(=O)Nc1cccc(Oc2ccccn2)c1	> 10 µM (inactive)
COCC(=O)N1[C@@H]2CN(C(=O)c3cccnc3)c3ccccc3[C@@H]2[C@@H]1CO	> 10 µM (inactive)
COc1ccc(C(=O)N2C[C@@H]3[C@H](c4ccccc42)[C@H](CO)N3C(=O)Cc2ccccn2)cc1	> 10 µM (inactive)
O=S(=O)(c1ccc(F)cc1)N1C[C@@H]2[C@H](c3ccccc31)[C@H](CO)N2Cc1ccccc1Cl	> 10 µM (inactive)
COCC(=O)N1[C@@H]2CNc3ccccc3[C@@H]2[C@@H]1CO	> 10 µM (inactive)
C/C=C/c1ccc([C@@H]2[C@H](CO)N[C@H]2CN(CC)C(=O)CN2CCOCC2)cc1	> 10 µM (inactive)
C[C@@H]1CN([C@H](C)CO)C(=O)CCCn2nncc2CO[C@@H]1CN(C)CC1CCCCC1	> 10 µM (inactive)
CC(=O)N(CC1CCC1)C[C@H]1N[C@H](CO)[C@@H]1c1ccc(C2=CCCC2)cc1	> 10 µM (inactive)
O=C(c1ccncc1)N1C[C@H]2[C@@H](c3ccccc31)[C@@H](CO)N2C(=O)CN1CCOCC1	> 10 µM (inactive)
C[C@@H]1CN([C@@H](C)CO)C(=O)CCCn2nncc2CO[C@H]1CN(C)C(=O)Oc1cccc2ccccc12	> 10 µM (inactive)
C[C@H]1CN([C@@H](C)CO)C(=O)CCCn2nncc2CO[C@H]1CN(C)C(=O)Oc1cccc2ccccc12	> 10 µM (inactive)
COCCNC[C@H]1[C@H](c2ccccc2)[C@H](CO)N1c1nc(C)c(C)s1	> 10 µM (inactive)
CNC[C@@H]1OCc2cn(nn2)CCCC(=O)N([C@@H](C)CO)C[C@@H]1C	> 10 µM (inactive)
C[C@H]1CN([C@@H](C)CO)C(=O)CCCn2nncc2CO[C@H]1CN(C)C(=O)Nc1cccc(Oc2ccccn2)c1	> 10 µM (inactive)
O=C(NC[C@@H]1[C@@H](c2ccccc2)[C@H](CO)N1C(=O)Cc1ccncc1)C1CCC1	> 10 µM (inactive)
C[C@H]1CN([C@@H](C)CO)C(=O)CCCn2cc(nn2)CO[C@@H]1CN(C)C(=O)c1ccc(N2CCN(C)CC2)cc1	> 10 µM (inactive)
C[C@@H]1CN([C@H](C)CO)C(=O)CCCn2nncc2CO[C@H]1CN(C)C(=O)Nc1ccc2c(c1)OCCO2	> 10 µM (inactive)
COCC(=O)N(C[C@H]1[C@H](c2ccccc2)[C@H](CO)N1C(=O)NC(C)C)C(C)C	> 10 µM (inactive)
C/C=C/c1ccc([C@H]2[C@@H](CO)N(C(C)=O)[C@H]2CN(C(C)=O)C2CCCC2)cc1	> 10 µM (inactive)
C[C@@H]1CN([C@H](C)CO)C(=O)CCCn2nncc2CO[C@H]1CN(C)C(=O)c1ccc2ccn(C)c2c1	> 10 µM (inactive)
O=C(NC[C@H]1N[C@H](CO)[C@H]1c1ccccc1)c1ccccc1F	> 10 µM (inactive)
